Laboratory results from patent US11534441B2, “MAP4K1 inhibitors” (Blueprint Medicines Corporation, priority 2020, dated 2022).

What was measured:
expanded CD3+ T cells = assay: T cell enhancement of cytokines: IL2 measurement (HTRF) in expanded CD3+ T cells stimulated with anti-CD3/anti-CD28; assay type: cell-based, human; conditions: IL-2 measurement
Outline: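 Healthy-donor T cells (95-98% CD3+) expanded 10-14 days with IL2 and CD3/CD28 beads, then cryopreserved. 100K cells/well in X-VIVO 10 serum-free medium were stimulated with plate-bound anti-CD3 plus soluble anti-CD28 with compound at various concentrations for 24 h. Secreted IL2 measured by HTRF after 24 h antibody incubation.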

MAP4K1 (HPK1) = MAP4K1 (HPK1) (Homo sapiens (Human), UniProt Q92918); assay: MAP4K1 (HPK1) biochemical enzymatic activity, electrophoretic mobility shift (EZReader 2), ATP at APPKM (26 μM)
Sequence of MAP4K1 (HPK1) (Q92918 whole entry): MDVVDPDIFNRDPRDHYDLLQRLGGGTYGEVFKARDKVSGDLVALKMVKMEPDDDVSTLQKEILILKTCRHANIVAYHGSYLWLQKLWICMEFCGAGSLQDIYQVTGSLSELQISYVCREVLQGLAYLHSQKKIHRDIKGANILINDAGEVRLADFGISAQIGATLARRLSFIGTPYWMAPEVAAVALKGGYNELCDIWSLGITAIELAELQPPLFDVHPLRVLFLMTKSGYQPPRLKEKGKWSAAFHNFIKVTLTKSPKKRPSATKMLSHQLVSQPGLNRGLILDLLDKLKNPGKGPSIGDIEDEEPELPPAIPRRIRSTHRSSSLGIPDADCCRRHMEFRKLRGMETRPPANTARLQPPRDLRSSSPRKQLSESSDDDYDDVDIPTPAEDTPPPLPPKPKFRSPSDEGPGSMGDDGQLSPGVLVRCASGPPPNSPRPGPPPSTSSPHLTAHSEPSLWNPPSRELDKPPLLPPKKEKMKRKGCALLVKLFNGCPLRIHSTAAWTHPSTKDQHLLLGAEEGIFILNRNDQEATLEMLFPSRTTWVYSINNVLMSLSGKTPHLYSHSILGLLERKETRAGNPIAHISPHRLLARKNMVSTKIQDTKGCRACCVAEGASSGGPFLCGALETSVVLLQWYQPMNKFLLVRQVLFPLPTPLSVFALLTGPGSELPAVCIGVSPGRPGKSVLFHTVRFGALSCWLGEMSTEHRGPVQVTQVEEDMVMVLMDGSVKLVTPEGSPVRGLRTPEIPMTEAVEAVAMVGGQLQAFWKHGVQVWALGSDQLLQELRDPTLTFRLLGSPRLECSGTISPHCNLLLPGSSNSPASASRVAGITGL
Outline: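 Enzyme at 0.1-15 nM was incubated with 1.5 μM fluorescent peptide and ATP at the apparent Km (26 μM) in HEPES pH 7.5, MgCl2, DTT and Brij 35. The reaction ran at 25° C for 60-180 min with a 10-point, 4-fold compound series (1% DMSO) and was stopped with EDTA. Substrate and product peptides were resolved by microfluidic mobility shift, and their peak ratio gave activity.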

[1] = Homo sapiens, T-cell, class designation
[2] = Homo sapiens, T-cell, numeric value

| EC50 (expanded CD3+ T cells; [1]) [nM] | EC50 (expanded CD3+ T cells; [2]) [nM] | IC50 (MAP4K1 (HPK1); class designation) [nM] | IC50 (MAP4K1 (HPK1); numeric value) [nM] | EC50 (expanded CD3+ T cells; class designation) [nM] | EC50 (expanded CD3+ T cells; numeric value) [nM] | Compound |
| --- | --- | --- | --- | --- | --- | --- |
|  |  | < 0.3 | 0.1 | < 35 | 19 | CC[C@](C)(N)c1cnc(OC2CC2)c2cnc(Nc3ccc4c(n3)C3(CC3)C(C)(C)OC4=O)cc12 [Compound 196] |
|  |  | < 0.3 | 0.22 | < 35 | 29.8 | CC[C@@H](N)c1cnc(OC)c2cnc(Nc3ccc4c(n3)[C@@H](C)C(C)(C)OC4=O)cc12 [Compound 204] |
| > 55 | 113 | 0.31 to 1 | 0.35 |  |  | COC[C@@](C)(N)c1cnc(C)c2cnc(Nc3ccc4c(n3)[C@@H](C)[C@H](C)OC4=O)cc12 [Compound 205] |
|  |  | 0.31 to 1 | 0.7 | > 55 | 96 | COC[C@@H](N)c1cnc(OC)c2cnc(Nc3ccc4c(n3)[C@@H](C)C(C)(C)OC4=O)cc12 [Compound 208] |
|  |  | < 0.3 | 0.23 | > 55 | 177 | CC[C@@H](N)c1cnc(C)c2cnc(Nc3ccc4c(n3)[C@@H](C)C(C)(C)OC4=O)cc12 [Compound 210] |

More lines, now with the values behind:

| Compound | EC50 (expanded CD3+ T cells; [1]) [nM] | EC50 (expanded CD3+ T cells; [2]) [nM] | IC50 (MAP4K1 (HPK1); class designation) [nM] | IC50 (MAP4K1 (HPK1); numeric value) [nM] | EC50 (expanded CD3+ T cells; class designation) [nM] | EC50 (expanded CD3+ T cells; numeric value) [nM] |
| --- | --- | --- | --- | --- | --- | --- |
| C[C@@H]1OC(=O)c2ccc(Nc3cc4c(C(C)(C)N)cnc(OCC(C)(F)F)c4cn3)nc2[C@H]1C [Compound 166] | 35.1 to 45 | 40 | < 0.3 | 0.25 |  |  |
| CC1(C)Cc2nc(Nc3cc4c([C@](C)(N)C5CCC5)cnc(OC5CC5)c4cn3)ccc2C(=O)O1 [Compound 168] |  |  | < 0.3 | 0.15 | 35.1 to 45 | 41.3 |
| C[C@@H]1OC(=O)c2ccc(Nc3cc4c([C@](C)(N)C5CCC5)cnc(OC5CC5)c4cn3)nc2[C@H]1C [Compound 170] |  |  | < 0.3 | 0.07 | < 35 | 6.8 |
| CC[C@]1(C)OC(=O)c2ccc(Nc3cc4c(C(C)(C)N)cnc(OCC(F)(F)F)c4cn3)nc21 [Compound 172] |  |  | 1.1 to 10 | 4.47 | > 55 | 74.8 |
| CC[C@@]1(C)OC(=O)c2ccc(Nc3cc4c(C(C)(C)N)cnc(OCC(F)(F)F)c4cn3)nc21 [Compound 174] |  |  | 1.1 to 10 | 2.9 | < 35 | 28.2 |
| CC(C)(N)c1cnc(OCC(F)(F)F)c2cnc(Nc3ccnc([C@@H]4CCC[C@@H](O)C4)n3)cc12 [Compound 176] |  |  | 0.31 to 1 | 0.8 | < 35 | 20.9 |
| C[C@@H]1OC(=O)c2ccc(Nc3cc4c(C(C)(C)N)cnc(OC5CC(F)(F)C5)c4cn3)nc2[C@H]1C [Compound 178] | > 55 | 58.7 | < 0.3 | 0.29 |  |  |
| CC1(C)Cc2nc(Nc3cc4c(C(C)(C)NC5COC5)cnc(OC5CC5)c4cn3)ccc2C(=O)O1 [Compound 183] | < 35 | 3.1 | > 10 | 26.4 |  |  |
| COC[C@@](C)(N)c1cnc(OC)c2cnc(Nc3ccc4c(n3)[C@@H](C)[C@H](C)OC4=O)cc12 [Compound 188] |  |  | < 0.3 | 0.09 | < 35 | 6.8 |
| COC[C@@](C)(N)c1cnc(OC2CC2)c2cnc(Nc3ccc4c(n3)[C@@H](C)C(C)(C)OC4=O)cc12 [Compound 189] |  |  | < 0.3 | 0.16 | 45.1 to 55 | 45.8 |
